Data set [1] in a line: CEM cell proliferation (cytotoxicity) assay. The data set is classed as cell-based. As to conditions: human. The method, then: (§1) PBM and CEM Cells Proliferation Assay: The drugs were evaluated for their potential toxic effects on uninfected PHA-stimulated human PBM cells and also in CEM cells. The cells were cultured with and without drug for 6 days at which time aliquots were counted for cell viability as described above. Median-Effect Method: EC50 and IC50 values were obtained by analysis of the data using the median-effect equation (Chou, T., et al., “Quantitative Analysis of Dose-Effect Relationships: The Combined Effects of Multiple Drugs or Enzyme Inhibitors,” Adv. Enz. Regul. 22, 27-55 (1984).

Data set [2] in a line: PBM cell proliferation (cytotoxicity) assay. The data set is classed as cell-based. The note with it: human. On the procedure: as §1
A further data set in a line: Toxicity in Vero cells. As to conditions: African green monkey. The data set is classed as cell-based. On the procedure:
The cells dislodged from the flask were generally in clumps and were dispersed by repeated forceful pipetting of the suspension against the surface of the flask. To 1 ml of the well-dispersed cell suspension, 0.2 ml of trypan blue solution was added, and the number of cells were counted using a hemacytomer. Each day for the next 3 days, two of the remaining flasks were harvested in the manner just described for determination of cell number. Only data on day three are presented. This method has previously been described by Schinazi, et al., “Effect of Combination of Acyclovir, and Vidarabine or its 5′-monophosphate on Herpes Simplex Viruses in Cell Culture and in Mice,” Antimicrob. Agents Chemother. 22, 499-507 (1982)). Median-Effect Method: EC50 and IC50 values were obtained by analysis of the data using the median-effect equation (Chou, T., et al., “Quantitative Analysis of Dose-Effect Relationships: The Combined Effects of Multiple Drugs or Enzyme Inhibitors,” Adv. Enz. Regul. 22, 27-55 (1984).

For data set [3] the following is noted: cited from earlier work.
For data set [4] the following is noted: Ziv and Heavner 1984; cited from earlier work.
For data set [5] the following is noted: sheep, cited from earlier work.
Data set [6] deals with RNA virus R17. The experiment in a line: Inactivation of RNA virus R17, plaque titer on E. coli lawn. The data set is classed as cell-based, R17 phage. As to conditions: for PFU: MB 0.05 uM. On the procedure: Add 20 μl φ (R17 phage) stock to 2.0 ml dilution buffer and dispense 0.3 ml into each of tubes A-F. Next add methylene blue to give concentrations shown in Table 2 below. Pipet 270 μl of samples to be light treated into the #1 wells of a 96 well microtiter plate, corresponding to its letter label A-H. The samples in the microtiter plate were exposed to light through water (¼ cm) deep in a petri dish for 5 minutes. 270 μl of each sample not to be light treated was then added to wells in the plate.
R17 virus samples were also tested to determine the time of exposure of light required to inactivate the virus. […] The length of exposure was varied as follows:
Add 0.3 ml to well H2, treat with light 0-5 min. Add 0.3 ml to well G2, treat with light 5 min-7.5 min. Add 0.3 ml to well F2, treat with light 7.5 min-9.0 min. Add 0.3 ml to well E2, treat with light 9.0 min-9.5 min. Add 0.3 ml to well D2, treat with light 9.5 min-9.9 min. Add 0.3 ml to well C2, treat with light 9.9 min-10.0 min. Add 0.3 ml to well B, no light. Add 0.3 ml to well A, no light.

The target in data set [7] is T1, HIV-1 reverse transcriptase (RT) (Human immunodeficiency virus type 1 group M subtype B, UniProt P03367).
T1 construct: HIV reverse transcriptase (RT); endogenous in cells; host or cells: HIV-1-infected PHA-stimulated human PBM cells
The experiment in a line: HIV-1 reverse transcriptase enzyme assay. The data set is classed as biochemical. The text has this:
(§2) Enzyme Assays: The preparation of the enzyme and the assay conditions used, were recently described by Schinazi, et al., Antimicrob. Agents Chemother. 33, 115-117 (1989). HIV-1 RT and cellular DNA polymerase alpha were isolated from infected and uninfected PHA-stimulated human PBM cells according to traditional methods (Eriksson, B., et al., Antimicrob. Agents Chemother. 31, 600-604, (1987); Furman, et al., Proc. Natl. Acad. Sci. USA 83, 8333-8337, (1986); Abrell, et al., J. Virol. 12, 431-439, (1973).
(§3) Assays. Reaction mixtures (100 μl) contained:
(§4) The reactions were started by the addition of 10 μl of purified enzyme, incubated at 37° C. for the indicated periods of time and processed as described in Eriksson, et al., Antimicrob. Agents Chemother. 31, 600-604 (1987).
(§5) Median-Effect Method: EC50 and IC50 values were obtained by analysis of the data using the median-effect equation (Chou, T., et al., “Quantitative Analysis of Dose-Effect Relationships: The Combined Effects of Multiple Drugs or Enzyme Inhibitors,” Adv. Enz. Regul. 22, 27-55 (1984).
(§6) The effect of methylene blue on two DNA polymerizing enzymes, HIV reverse transcriptase (RT) and calf thymus DNA polymerase alpha (CT α pol), was also studied.

Data set [8] has as its system RNA virus R17. The experiment in a line: Inactivation of RNA virus R17, plaque titer on E. coli lawn. The data set is classed as cell-based, R17 phage.
The target of data set [9] is T2, calf thymus DNA polymerase alpha (CT α pol) (Bos taurus, UniProt A0AAA9TD94).
T2 construct: calf thymus DNA polymerase alpha (CT α pol); from tissue; host or cells: calf thymus
T2 sequence (A0AAA9TD94 entry or part of it): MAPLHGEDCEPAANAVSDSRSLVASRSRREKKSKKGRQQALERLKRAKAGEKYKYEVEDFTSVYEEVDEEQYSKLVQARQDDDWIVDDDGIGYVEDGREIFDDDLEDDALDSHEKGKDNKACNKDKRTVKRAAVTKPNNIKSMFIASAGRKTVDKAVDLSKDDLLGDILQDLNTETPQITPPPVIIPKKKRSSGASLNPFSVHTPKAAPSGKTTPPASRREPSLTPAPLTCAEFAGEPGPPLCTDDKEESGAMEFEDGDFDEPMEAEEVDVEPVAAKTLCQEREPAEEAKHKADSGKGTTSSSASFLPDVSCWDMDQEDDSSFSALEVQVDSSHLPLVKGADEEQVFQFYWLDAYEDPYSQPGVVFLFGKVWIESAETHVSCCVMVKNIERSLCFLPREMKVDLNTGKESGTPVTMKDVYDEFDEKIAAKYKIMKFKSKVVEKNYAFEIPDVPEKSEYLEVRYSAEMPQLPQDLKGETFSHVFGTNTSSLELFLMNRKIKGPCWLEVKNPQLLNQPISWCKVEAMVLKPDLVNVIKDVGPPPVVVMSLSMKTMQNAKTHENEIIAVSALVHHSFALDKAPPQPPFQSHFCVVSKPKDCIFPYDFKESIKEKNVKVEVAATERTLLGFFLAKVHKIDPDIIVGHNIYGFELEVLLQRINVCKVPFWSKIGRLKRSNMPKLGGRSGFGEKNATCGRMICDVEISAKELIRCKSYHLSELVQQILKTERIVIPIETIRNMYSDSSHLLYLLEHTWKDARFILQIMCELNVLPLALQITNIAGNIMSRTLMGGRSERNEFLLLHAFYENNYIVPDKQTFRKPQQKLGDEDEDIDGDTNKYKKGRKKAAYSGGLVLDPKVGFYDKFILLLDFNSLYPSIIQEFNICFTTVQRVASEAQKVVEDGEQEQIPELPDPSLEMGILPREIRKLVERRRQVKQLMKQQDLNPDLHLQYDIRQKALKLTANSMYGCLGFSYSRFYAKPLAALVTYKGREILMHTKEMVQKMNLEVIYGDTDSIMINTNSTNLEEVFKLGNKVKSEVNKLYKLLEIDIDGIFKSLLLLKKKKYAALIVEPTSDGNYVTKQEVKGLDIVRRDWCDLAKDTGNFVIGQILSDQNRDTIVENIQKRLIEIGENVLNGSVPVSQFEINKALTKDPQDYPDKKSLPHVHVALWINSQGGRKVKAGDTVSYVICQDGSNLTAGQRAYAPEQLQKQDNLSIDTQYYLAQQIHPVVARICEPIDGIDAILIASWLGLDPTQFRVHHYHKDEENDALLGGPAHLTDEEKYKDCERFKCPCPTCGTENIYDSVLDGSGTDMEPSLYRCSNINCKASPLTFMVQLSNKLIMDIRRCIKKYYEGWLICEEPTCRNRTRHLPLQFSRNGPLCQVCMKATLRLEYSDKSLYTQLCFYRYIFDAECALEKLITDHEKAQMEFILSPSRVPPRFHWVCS
The experiment in a line: DNA polymerase alpha enzyme assay. The data set is classed as biochemical.
Description: as §2, §3, §4, §5, §6

Some results are limits rather than exact numbers.

These results are taken from US6346529B1, “Antiviral therapy using thiazine dyes” (Oklahoma Medical Research Foundation, priority 1988, dated 2002).

For orientation: IC50 means the concentration at which inhibition is half-maximal.

`Nc1nc2c(ncn2COCCO)c(=O)[nH]1` [ACV, Acyclovir]: the IC50 at 6 days in [1] and in data set [2] was above 100 µM in each case. In the data set “Toxicity in Vero cells”, the IC50 at 3 days was 1700 µM.

Take `CN(C)c1ccc2nc3ccc(N(C)C)cc3[s+]c2c1.[Cl-]` [MB, 3,7-Bis(dimethylamino)phenothiazin-5-ium chloride]: in [3] (American Hospital Formulary Service), the “absorption from the GI tract” value is “absorbed well from the GI tract”. For the same compound, in data set [3] (mostly as leukomethylene blue), the “excreted in urine and via the bile” value was “about 75%”. Also, the “crossing of the blood-milk barrier” value in data set [4] is listed as “crosses the blood-milk barrier easily”. Moreover, the methemoglobin production result in data set [5] (doses as high as 50 mg/kg) is listed as “minimal methemoglobin production”. In data set [5] (up to four weeks after a total dose of 30 mg/kg), the hematologic changes result was “no hematologic changes”. The “overall elimination rate constant” value in data set [5] is 0.0076 ± 0.016 min⁻¹. In addition, the “light exposure inactivating infectivity 50%” value in the data set with RNA virus R17 [6] (0.05 μM methylene blue) came to 45 s. Moreover, the pfu/ml was 5.04 × 10^10 pfu/ml with RNA virus R17 [6] (MB 0.02 uM, light 5′ yes); 1.11 × 10^10 pfu/ml in the data set with RNA virus R17 [6] (MB 0.04 uM, light 5′ yes); 3.25 × 10^5 pfu/ml in the data set with RNA virus R17 [6] (MB 0.2 uM, light 5′ yes); 3.00 × 10^3 pfu/ml with RNA virus R17 [6] (MB 2.0 uM, light 5′ yes); 4.80 × 10^10 pfu/ml in the data set with RNA virus R17 [6] (MB 2.0 uM, light no); 4.20 × 10^4 pfu/ml with RNA virus R17 [6] (MB 20.0 uM, light 5′ yes). For the same compound, in the data set with RNA virus R17 [6] (MB 20.0 uM, light no), the pfu/ml is reported as 3.00 × 10^9 pfu/ml. The “t½ of R17 inactivation” value in the data set on RNA virus R17 [6] (MB 0.05 uM and light) lay within 48 to 60 s. The PFU in the data set with RNA virus R17 [6] (light 0.1 min) is listed as 3.3 × 10^9/ml PFU/ml; with RNA virus R17 [6] (light 0.5 min) it was 5.0 × 10^9/ml PFU/ml; in the data set on RNA virus R17 [6] (light 2.5 min) it was 9.1 × 10^7/ml PFU/ml; in the data set with RNA virus R17 [6] (light 5.0 min) it was 6.93 × 10^7/ml PFU/ml; in the data set on RNA virus R17 [6] (light exposure none), 2.76 × 10^9/ml PFU/ml; in the data set with RNA virus R17 [8] (MB 0.05 uM, light 1.0 min) it was 1.0 × 10^9/ml PFU/ml. For the same compound, the IC50 worked out at 10 µM in data set [7] (Dark), 9.2 µM in data set [7] (Light), 105 µM in data set [9] (Dark) and 125 µM in data set [9] (Light). For the same compound, in the data set on RNA virus R17 [8] (0.02 μM methylene blue plus light for 15 min), the “inactivation of R17 (ability to form plaques)” value is on record as “causes inactivation of R17”.
